Patent publication US8329726B2, “Inhibitors of VEGF receptor and HGF receptor signaling” (MethylGene Inc., priority 2005, dated 2012)

Assays:
[1] = target: T1, recombinant human c-Met/HGF receptor (Homo sapiens, UniProt P08581); assay: In vitro receptor tyrosine kinase assay (DELFIA), c-Met/HGF receptor; type: biochemical; conditions: read-out: CMET IC50
T1 construct: His tag (pBlueBacHis2A vector); made in house; host or cells: Hi-5 cells (Trichoplusia ni), baculovirus
Procedure: Cell pellets were frozen at −80° C. until purification was performed.
The coated plates were washed and stored at 4° C. […] After incubation, the kinase reactions were quenched with EDTA and the plates were washed.

A549 = A549 wound healing inhibition (HGF dependent migration); type: cell-based; conditions: Homo sapiens, A549 cells, read-out: A549 WOUND HEALING INHIB IC50
Text: (§1) HGF has well known activity in terms of inducing scattering and migration (wound healing) (Wells et al., Cell Motil Cytoskeleton. 2005 November 62(3):180-94; Miura et al., Urology 2001 December 58(6):1064-9; Nishimura et al., Int J Urol. 1998 May 5(3):276-81; Wang et al., Mol Cancer Ther. 2003 November; 2(11):1085-92; and Christensen et al., Cancer Res. 2003 Nov. 1; 63(21):7345-55).

DU145 = DU145 scattering inhibition (HGF dependent scattering); type: cell-based; conditions: Homo sapiens, DU-145; HGF dependent scattering, DU145 cells; read-out: DU145 SCATTERING INHIB IC50
Text: as §1

VEGF receptor KDR = target: T2, VEGF receptor KDR (Homo sapiens, UniProt P35968); assay: In vitro receptor tyrosine kinase assay (DELFIA), VEGF receptor KDR; type: biochemical; conditions: read-out: VEGFR IC50
T2 construct: made in house; host or cells: Sf9 cells (Spodoptera frugiperda), baculovirus
T2 sequence (P35968 806-1356): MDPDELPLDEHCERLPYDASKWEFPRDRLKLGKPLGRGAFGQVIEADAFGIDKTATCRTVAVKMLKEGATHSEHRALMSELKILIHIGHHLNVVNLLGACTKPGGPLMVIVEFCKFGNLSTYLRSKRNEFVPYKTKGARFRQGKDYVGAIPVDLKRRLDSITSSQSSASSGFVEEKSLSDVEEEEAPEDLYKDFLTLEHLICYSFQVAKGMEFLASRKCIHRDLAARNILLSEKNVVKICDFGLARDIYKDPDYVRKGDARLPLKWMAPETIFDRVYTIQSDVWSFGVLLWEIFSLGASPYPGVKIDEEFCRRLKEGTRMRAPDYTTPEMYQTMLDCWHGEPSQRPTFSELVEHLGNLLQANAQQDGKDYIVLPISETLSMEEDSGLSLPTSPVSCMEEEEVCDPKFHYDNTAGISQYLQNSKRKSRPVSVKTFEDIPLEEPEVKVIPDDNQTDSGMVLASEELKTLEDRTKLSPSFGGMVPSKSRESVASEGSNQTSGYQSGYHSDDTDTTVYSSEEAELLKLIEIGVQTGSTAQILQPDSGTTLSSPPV

T1 sequence (P08581 1078-1337): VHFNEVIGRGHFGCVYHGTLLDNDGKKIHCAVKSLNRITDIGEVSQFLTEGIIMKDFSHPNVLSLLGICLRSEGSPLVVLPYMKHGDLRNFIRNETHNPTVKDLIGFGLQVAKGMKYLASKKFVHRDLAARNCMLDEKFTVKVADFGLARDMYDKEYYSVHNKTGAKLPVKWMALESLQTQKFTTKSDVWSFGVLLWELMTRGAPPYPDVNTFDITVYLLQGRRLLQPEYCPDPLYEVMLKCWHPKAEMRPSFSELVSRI

Structure (SMILES)	IC50 [1] [nM]	IC50 (A549) [nM]	IC50 (DU145) [nM]	IC50 (VEGF receptor KDR) [nM]
CN(C)CCn1cnc(-c2cc3nccc(Oc4ccc(NC(=O)CC(=O)Nc5ccccc5F)cc4F)c3s2)c1	< 50	< 1000	< 1000	< 50
CN1CCN(Cc2ccc(-c3cc4nccc(Oc5ccc(NC(=O)C6CCN(c7ccccc7)C6=O)cc5F)c4s3)cc2)CC1 (centres unmarked)	50 to 250	1000 to 5000	1000 to 5000	< 50
COc1ccccc1NC(=O)CC(=O)Nc1ccc(Oc2ccnc3cc(C(=O)N4CC(O)C4)sc23)c(F)c1	50 to 250	1000 to 5000	1000 to 5000	< 50
O=C(Nc1ccc(Oc2ccnc3cc(-c4cn(CCCN5CCCC5)cn4)sc23)c(F)c1)C1(C(=O)Nc2ccccc2F)CC1	< 50	< 1000	< 1000	< 50
Cn1cnc(-c2cc3nccc(Nc4ccc(NC(=O)C5(C(=O)Nc6ccccc6)CC5)cc4F)c3s2)c1	< 50	< 1000	< 1000	50 to 250
COc1ccccc1NC(=O)CC(=O)Nc1ccc(Oc2ccnc3cc(C(=O)NN(C)C)sc23)c(F)c1	250 to 500	1000 to 5000	1000 to 5000	> 500
CCn1cnc(-c2cc3nccc(Oc4ccc(NC(=O)C5(C(=O)Nc6ccccc6OC)CC5)cc4F)c3s2)c1	< 50	< 1000	< 1000	< 50
COc1cccc(Nc2cc3nccc(Oc4ccc(NC(=O)CC(=O)Nc5ccccc5)cc4F)c3s2)c1	50 to 250	1000 to 5000	1000 to 5000	> 500
CN(C)CCn1cnc(-c2cc3nccc(Oc4ccc(NC(=O)N5CCN(c6ccc(F)cc6)C5=O)cc4F)c3s2)c1	< 50	< 1000	< 1000	< 50
COCn1cnc(-c2cc3nccc(Oc4ccc(NC(=O)CC(=O)Nc5ccccc5OC)cc4F)c3s2)c1	50 to 250	1000 to 5000	< 1000	< 50
CN(C)Cc1ccc(-c2cc3nccc(Oc4ccc(NC(=O)N5CCN(c6ccc(F)cc6)C5=O)cc4F)c3s2)nc1	< 50	< 1000	< 1000	< 50
CCn1cnc(-c2cc3nccc(Oc4ccc(NC(=O)C(=O)NCCc5ccccc5OC)cc4F)c3s2)c1	50 to 250	1000 to 5000	> 10000	< 50
Cn1cnc(-c2cc3nccc(Oc4ccc(NC(=O)C5(C(=O)Nc6ccccc6)CC5)cc4F)c3s2)c1	< 50	< 1000	< 1000	< 50

Second part, the molecule after the results:

IC50 [1] [nM]	IC50 (A549) [nM]	IC50 (DU145) [nM]	IC50 (VEGF receptor KDR) [nM]	Structure (SMILES)
50 to 250	1000 to 5000	1000 to 5000	< 50	Cn1cncc1-c1cc2nccc(Oc3ccc(NC(=O)CC(=O)Nc4cccnc4)cc3F)c2s1 [drawing 290]
< 50	< 1000	< 1000	< 50	CCn1cnc(-c2cc3nccc(Oc4ccc(NC(=O)CC(=O)Nc5ccccc5)cc4F)c3s2)c1C
< 50	1000 to 5000	< 1000	< 50	CN1CCN(Cc2ccc(-c3cc4nccc(Oc5ccc(NC(=O)CC(=O)Nc6ccccc6)cc5F)c4s3)nc2)CC1
< 50	< 1000	< 1000	< 50	CCn1cnc(-c2cc3nccc(Oc4ccc(NC(=O)CC(=O)Nc5ccccc5F)cc4F)c3s2)c1 [drawing 293]
< 50	< 1000	< 1000	< 50	CCCn1cnc(-c2cc3nccc(Oc4ccc(NC(=O)CC(=O)Nc5ccccc5F)cc4F)c3s2)c1
< 50	1000 to 5000	< 1000	< 50	CCCn1cnc(-c2cc3nccc(Oc4ccc(NC(=O)CC(=O)Nc5ccccc5OC)cc4F)c3s2)c1
> 500	> 10000	> 10000	> 500	Cn1ccnc1-c1cc2nccc(Oc3ccc(NC(=O)CC(=O)NC4CCNCC4)cc3F)c2s1
